From PMC11462456 (Chemical Science, 2024)

Tests used:
Type in all cases: cell-based
BRD4 = target: T1, BRD4 (Homo sapiens, UniProt O60885); test: Western blot degradation of BRD4 in HEK293 cells; conditions: HEK293, lenalidomide 10 μM preincubated 2 h, PROTAC 100 nM, 4 h
T1 construct: BRD2, BRD3 and BRD4 protein levels were measured by western blot; endogenous in cells; host or cells: HEK293 (ATCC)
Description: 4.2 Cell lines and culture
HEK293, A549, SKOV-3, HCT116 cells (ATCC)were grown in DMEM (Gibco),and all cells were supplemented with 10% (v/v) fetal bovine serum (FBS) (Sigma), 100 mg/mL penicillin/streptomycin solution (Thermo Fisher Scientific) and maintained at 37 °C and 5% CO2 in a humidified atmosphere. All cells used were tested monthly using the Mycoalert
4.3 Degradation assays by Western blot
General method of Western blot: Lysates were sonicated and centrifuged at 4 °C at 20000 g for 15 min, and the supernatants were transferred to new tubes. Protein concentration of cell lysates was measured using the DC Protein Assay kit (BIO-RAD) following manufacturer's instructions. Cell lysates were mixed with reducing sample buffer (0.5 M Tris-HCl (pH 6.8),
at 95°C. Proteins were separated by SDS–PAGE (SDS polyacrylamide gel electrophoresis) with 25–40 µg of total protein per well, transferred to 0.2-μm-pore nitrocellulose membranes (BIO-RAD), then blocked in 5%(w/v) milk in PBS and 0.5% Tween-20, and incubated overnight at 4°C with primary antibodies described in section 4.1. Secondary antibodies were added for 1h at room temperature after 3 times washing with blocking buffer. After 6 times of washing
with PBS (Thermo Fisher Scientific) and 0.5% Tween-20, Blots were detected using the Clarity Western ECL Substrate (BIO-RAD) and visualized on iBright CL 750 (Thermo Fisher Scientific) and images were analyzed using iBright Firmware 1.7.0.
4.3.1 Evaluation of the degradation capacity of PROTACs […]

[1] = tested on: HEK293, A549, HCT116 and SKOV-3; test: CellTiter-Glo metabolic activity, cell line panel; conditions: 48 h
Description: 4.4 Cell viability assay on 2D cells cultures
HEK293, HCT116, A549,andSKOV-3 cells were seeded in 96-well tissue culture plates at a density of 2000-3000 cells per well in 100 µl of growth medium and incubated overnight at 37 °C with 5% CO2. The following day, the cells were treated with various concentrations of compounds or 0.05% DMSO for 48 h. After treatment, add 100 μl of Cell Titer-Glo® 2.0 Reagent (cat. no. G9243, Promega) in each well, then the 96-well plates were put on an orbital shaker for 10 min and then allow the plate to incubate at room temperature for 10-20min to stabilize the luminescent signal. Luminescence readout (Gen5 Data Analysis Software v3.08.01) was performed to record luminescence.
(1 picture or pasted object on this page, not shown here)

VHL = target: T2, VHL (Homo sapiens, UniProt P40337); test: E3 ligase homo-degradation by western blot, VHL; conditions: HEK293 cells, 4 h, 1 μM and 10 μM
T2 construct: western blot analysis of the levels of CRBN and VHL E3 ligase in cell lysate; endogenous in cells; host or cells: HEK293 (ATCC)
From the text: 4. Biological experiments
Primary antibodies used for western blotting included anti-human BRD2(1:2000, rabbit monoclonal, Abcam, ab139690), anti-human BRD3 (1:1000, rabbit monoclonal, Abcam, ab264420), anti-human BRD4 (E2A7X) (1:1000, rabbit monoclonal, Cell Signaling Technology, #13440), anti-human VHL (1:1000, rabbit polyclonal, Cell Signaling Technology, #68547), anti-human CRBN (D8H3S) (1:1000, rabbit polyclonal, Cell Signaling Technology, #71810), anti-human alpha Tubulin, clone B-5-1-2 (1:5000, mouse monoclonal, Merck Life Science, # 32-2500).Secondary antibodies used for western blot included: anti-mouse horseradish peroxidase-linked antibody (1:3000, sheep, GE Healthcare Life Sciences, #NA931V), and anti-rabbit horseradish peroxidase-linked antibody (1:8000, donkey, GE Healthcare Life Sciences, #NA934V). Reagent for degradation assay and compounds […]
dr. Serge Van Calenbergh, Ghent University). […]
General method of Western blot: Lysates were sonicated and centrifuged at 4 °C at 20000 g for 15 min, and the supernatants were transferred to new tubes. Protein concentration of cell lysates was measured using the DC Protein Assay kit (BIO-RAD) following manufacturer's instructions. […]
Figure S5 Homo-degradation effect in Dual-ligand PROTACs. […] Subsequently, cell lysates were prepared and the protein levels of CRBN or VHL E3 ligase were assessed by Western blotting. […]

T2 sequence (P40337 whole entry): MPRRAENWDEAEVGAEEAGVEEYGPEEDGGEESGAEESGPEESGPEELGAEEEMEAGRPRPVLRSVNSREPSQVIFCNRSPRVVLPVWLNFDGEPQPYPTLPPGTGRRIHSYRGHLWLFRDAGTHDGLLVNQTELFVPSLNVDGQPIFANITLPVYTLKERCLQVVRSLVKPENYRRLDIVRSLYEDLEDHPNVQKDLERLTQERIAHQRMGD

SMILES: Cc1sc2c(c1C)C(c1ccc(Cl)cc1)=N[C@@H](CC(=O)NCCOCCOCCNC(=O)C[C@H](NC(=O)COCCOCCOCCOCCn1cc(CCC(=O)N[C@@H](CC(=O)NCCOCCOCCNc3cccc4c3C(=O)N(C3CCC(=O)NC3=O)C4=O)C(=O)NCCOCCOCCNc3cccc4c3C(=O)N(C3CCC(=O)NC3=O)C4=O)nn1)C(=O)NCCOCCOCCNC(=O)C[C@@H]1N=C(c3ccc(Cl)cc3)c3c(sc(C)c3C)-n3c(C)nnc31)c1nnc(C)n1-2 (stereo partly drawn) [2J2P]
- BRD4 degradation efficiency on addition of lenalidomide (BRD4): significantly reduced

SMILES: Cc1ncsc1-c1ccc(C(C)NC(=O)C2CC(O)CN2C(=O)C(NC(=O)COCCOCCNC(=O)CC(NC(=O)CCc2cn(CCOCCOCCOCCOCC(=O)NC(CC(=O)NCCOCCOCCNC(=O)CC3N=C(c4ccc(Cl)cc4)c4c(sc(C)c4C)-n4c(C)nnc43)C(=O)NCCOCCOCCNC(=O)CC3N=C(c4ccc(Cl)cc4)c4c(sc(C)c4C)-n4c(C)nnc43)nn2)C(=O)NCCOCCOCC(=O)NC(C(=O)N2CC(O)CC2C(=O)NC(C)c2ccc(-c3scnc3C)cc2)C(C)(C)C)C(C)(C)C)cc1 (stereo not drawn) [2J2V]
- metabolic inhibition, comparison [1]: greater metabolic response compared to the CRBN ligase-based dual-ligand PROTACs 2J2P
- VHL homo-degradation (VHL): did induce homo-degradation of VHL
